Numbers after ± are expanded uncertainties.

For the data set the following is noted: 298.15 K; 101 kPa; Liquid; Vibrating tube method.
The term mass density denotes the mass of a sample divided by its volume. In the case of `CC(=O)C(C)C` [3-methyl-2-butanone], the mass density stood at 800.63 ± 0.11 kg/m3.

On to `CC(=O)CC(C)C` [4-methylpentan-2-one], for which the mass density amounted to 796.23 ± 0.11 kg/m3.

As for `CCC(C)=O` [butanone], the mass density is listed as 800.3 ± 0.11 kg/m3.

The values are drawn from the NIST ThermoML archive (doi:10.1016/j.fluid.2013.07.054).
